# Assay results published in patent publication US5792457A, “Antibody recognizing endothelial cell ligand for leukocyte CR3” (priority 1995, dated 1998).
# System: CSF leukocytosis
# Assay: Rat meningitis model (LOS): CSF leukocytosis
# Format: in vivo, female Wistar rats
# Settings: 600 nmol i.v., 4 hours after LOS
# Description: The experiments were performed according to established protocols (Wispelway et al., 1988, J. Clin. Invest., 82: 1339-1346). Purified Haemophilus influenzae type b strain DL42 lipooligosaccharide (LOS) was prepared for inoculation by sonication for 30 minutes, dilution to the desired concentration (20 ng/50 μl) in normal saline or PBS, and sonication for an additional 15 to 30 minutes just prior to use.
# Briefly, anesthetized female Wistar rats were placed under a micromanipulator and inoculated intracisternally with a 25 gauge needle. After removal of 50 μl of CSF (without visible blood contamination), rats were inoculated intracisternally with 50 μl (20 ng) of LOS using a 1 ml syringe with a 25 gauge needle. Ten to fifteen minutes after inoculation with LOS, the rats were treated by intravenous administration of the test substance: a solution of an FHA peptide in PBS, a solution of a control peptide in PBS, or an equal volume of PBS alone.
# Three hours after LOS inoculation, 5 μCi of ^125 I-radiolabelled albumin in 50 μl normal saline was administered intravenously. One hour later, CSF was collected via intracisternal puncture and blood samples were collected via intracardiac puncture. CSF leukocytosis was determined by manually counting white blood cells using a hemacytometer, and blood-brain barrier permeability was determined as the percent of radioactivity in whole blood that was present in the CSF. Blood samples were obtained immediately prior to inoculation, immediately prior to treatment, and at 4 hours post-inoculation for determination of peripheral white blood cell concentrations.
substance,measurement,setting,value
Ac-ETKEVDG-NH2 [Acetyl/Amide-FHA II],Leukocytosis (CSF),,"approximately 10,000 cells/ml"
same,Leukocytosis (CSF),listed as ac/am FHA II,"10,500 ± 8523 cells/ml"
